# Measured values published in patent EP4678627A1, “NOVEL FERROPTOSIS INHIBITORS” (Universiteit Antwerpen, priority 2024, dated 2026).
# Experiment: Human liver microsomal stability
# Conditions: Corning ultra pool human liver microsome (HLM), NADPH, 1 µM, 0.5 mg/ml protein
structure (smiles),measurement,value
COc1ccc2c(c1)[C@]13CCCC[C@@H]1[C@H](C2)N(C)CC3 [Dextromethorphan],Microsomal stability in human t1/2,40.0 min
